For experiment [1], the system named is ovalbumin-induced constriction of respiratory tract. The experiment in a line: Respiratory tract constriction suppression action (Test Example 3). Type of experiment: in vivo, Hartley guinea pigs. The following applies: ovalbumin-immunized guinea pigs; test medicament via hind leg vein; 15 minutes after administration. The method, then:
Four-week old Hartley guinea pigs (male) were immunized by intraperitoneal administration of ovalbumin (Sigma, Grade V) in amounts of 1 mg for each animal on the day on which the experiment was started, 3 mg for each animal after 2 days, and 10 mg for each animal after 4 days. Twelve to fourteen days after the final immunization, the ovalbumin-immunized guinea pigs were anesthetized by intraperitoneal administration of about 40 mg/kg of pentobarbital (Somnopentyl), and the tracheas were taken out. Subsequently, a cannula (SP-110, Natsume) was inserted into each trachea, and one end of the cannula was connected to an artificial respirator (Model-b83, Harvard). The aeration conditions were set at 6 ml per kilogram and 60 times per 1 minute. Further, a cannula for medicament administration (JMS wing needle 23G 3/4) was inserted into a hind leg vein. Myoblock (Organon Technica) was administered in an amount of 0.5 mg/kg from the cannula inserted into the hind leg vein to stop the spontaneous breathing, and after 2 or 3 minutes, 0.3 mg/kg of ovalbumin was administered to induce constriction of respiratory tract. The increase of airway resistance value 2 minutes after the induction (measurement apparatuses: pressure transducer TR-603T, respiratory amplifier AR-601G, and recorder RTA-3100, Nihon Kohden Corp.) was confirmed to be above 80 cm H2O or higher, and then, a solution of a test medicament was administered from the cannula inserted into the hind leg vein, and the airway resistance value was continuously measured for 15 minutes after the administration to determine the effect.

The subject of experiment [2] is thoracic aorta constricted with phenylephrine. Description: Vasoconstriction inhibitory action (Test Example 2). The arrangement: species or system Rats (Wistar). The conditions noted are these: result in words; rat thoracic aorta, phenylephrine. The source says: Rats (Wistar, 11-week old) were bleeded to death and laparotomized to take out the thoracic aorta. That aorta was cut into a ring of a length of about 3 mm in a conventional manner (Asano, T., et al., J. Pharmacol. Exp. Ther., 241, pp. 1033–1040 (1987)) and hung in 10-ml organ bath filled with Krebs-Hensright nutrient solution bubbled with a mixed gas of 95% O2 and 5% CO2. One end of the blood vessel was connected to an isometric transducer (FD Pickup TB-912T, Nihon Kohden) and applied with 2.5 g of resting tension, and constriction and relaxation reactions of the aorta were recorded. The aorta was constricted with phenylephrine (1 μM, Sigma) and then added with a test compound (1 μM), and the vasoconstriction inhibitory action thereof was observed. The vasoconstriction inhibitory actions of the test compounds are shown in Table 6 mentioned below as the relaxation ratios, which are based on the vasoconstriction with phenylephrine immediately before the addition of the test compound taken as 100%.

In another experiment the test system is intraocular pressure. Description: Intraocular pressure reducing action (Test Example 4). The conditions noted are these: for inhibition in vivo at 1 %, 50 µL: Oryctolagus cuniculus, topical, 1% aqueous solution, 50 μl dropped to the left eye, after 2 hours, read-out: Intraocular pressure reducing action (reduction ratio) (%); for intraocular pressure reducing activity: result in words, rabbit. Type of experiment: in vivo, Japanese white rabbit. The method, then:
A Japanese white rabbit having a body weight of about 2 kg was placed in a positioner and naturalized for one week before the experiment. An ophthalmologic local anesthesant (Benoxil) was administered to the left eye, and then intraocular pressure was measured by using a tonometer (Classic 30, Solan). The initial value of the intraocular pressure was measured, then 50 μl of a test compound (1% aqueous solution) was dropped to the left eye, and after 2 hours, the intraocular pressure was measured. The intraocular pressure reducing action of the test compounds is shown in Table 7 mentioned below as ratios (%) of reduction of intraocular pressure based on the initial value of the intraocular pressure.

Experiment [3] has as its target T1, myosin light chain phosphorylation enzyme (MLCK) (Gallus gallus, UniProt P11799).
T1 construct: purified from chicken gizzard smooth muscle by a conventional method; from tissue; host or cells: chicken gizzard smooth muscle
The experiment in a line: Action on myosin light chain phosphorylation enzyme (MLCK) activity. Type of experiment: biochemical, chicken. The conditions noted are these: for inhibition of MLCK: result in words; for IC50: MLCK from chicken gizzard smooth muscle, ELISA, 100 μM ATP, read-out: Myosin light chain phosphorylation enzyme inhibitory action IC50. How it is done: A myosin light chain phosphorylation enzyme (MLCK) was purified from chicken gizzard smooth muscle by a conventional method (Yoshida, M., et al., J. Biochem., 99, 1027–1036 (1986)). The myosin regulatory light chain as a substrate was purified from the chicken gizzard smooth muscle by a conventional method (Grand, R. J., et al., Biochem. J., 211, 267–272 (1983)). The MLCK activity was measured by ELISA using pLC1 described in Test Example 1 (Sakurada, K., et al., J. Biochem., 115, 18–21 (1994)). The myosin regulatory light chain was diluted in phosphate-buffered saline (PBS, Sigma) to a concentration of 5.0 µg/ml, added to 96-well Immunoplate (Nunc) in a volume of 100 μl per well and left stand overnight at 4° C. Each well was washed with PBS, and 25 mM Tris/HCl buffer containing 100 μM ATP, 3 mM MgCl2, 1 mM CaCl2, 100 ng/ml of calmodulin (Sigma) and 100 ng/ml of MLCK (pH 7.4, Buffer A) was added to each well and incubated at 30° C. for 10 minutes. In a volume of 100 μl each of 20% aqueous phosphoric acid solution was added to each well to terminate the enzymatic reaction. Each well was washed with 25 mM Tris/HCl buffer (TTBS) containing 0.1% Tween 20, and then 100 μl each of pLC1 described in Test Example 1 was added to each well and incubated at room temperature for 90 minutes.
Each well was washed with TTBS, and then 100 μl of the HRP-labeled rabbit anti-mouse IgG antibodies (Bio-Rad) were added to each well and incubated at room temperature for 90 minutes. Each well was washed with TTBS, and then 25 mM citrate buffer (pH 5.0) containing orthophenylenediamine (Sigma) as a substrate of HRP and aqueous hydrogen peroxide (0.03%) was added in a volume of 100 μl per well and incubated at room temperature for 5 minutes. 50 μl of 4 N sulfuric acid was added to each well to terminate the reaction, and then absorbance was measured by using an immunoplate reader (Bio-Rad).

SMILES strings stand for the structures. Where a name gives a salt, the structure may show the parent alone.

As for `Cl.Nc1nccc2c(OCC3CCCNC3)cccc12` (stereo not shown) [Example 11, 3-[(1-Amino-5-isoquinolyl)oxy]methylpiperidine hydrochloride], the “constriction of respiratory tract (airway resistance value)” value (“constriction of respiratory tract” below) in experiment [1] is given as “significantly improved the constriction of respiratory tract”. In the case of `C=Cc1cncc2cccc(NC3CCNCC3)c12.Cl` [Example 112, 4-(4-Vinyl-5-isoquinolyl)aminopiperidine hydrochloride], in experiment [2], the vasoconstriction inhibitory action result is given as “significant vasoconstriction inhibitory action”. In addition, in the experiment on intraocular pressure, the inhibition in vivo at 1 %, 50 µL turned out to be 25%. The “inhibition of MLCK” value in experiment [3] is “did not inhibit MLCK”. On to `Cc1cncc2cccc(NC3CCN(CCO)CC3)c12.Cl` [Example 146, 1-(2-Hydroxyethyl)-4-(4-methyl-5-isoquinolyl)aminopiperidine hydrochloride], for which the vasoconstriction inhibitory action result in experiment [2] is “significant vasoconstriction inhibitory action”. For the same molecule, the “constriction of respiratory tract” value in experiment [1] is listed as “significantly improved the constriction of respiratory tract”. In addition, the “intraocular pressure reducing activity” value with intraocular pressure is “significant intraocular pressure reducing activity”. As to `Cc1cncc2cccc(N[C@H]3CC[C@@H](N)CC3)c12.Cl` [Example 120, Cis-N-(4-methyl-5-isoquinolyl)-1,4-cyclohexanediamine hydrochloride], the vasoconstriction inhibitory action result in experiment [2] is reported as “significant vasoconstriction inhibitory action”. Also, in the experiment with intraocular pressure, the “intraocular pressure reducing activity” value was “significant intraocular pressure reducing activity”. In experiment [3], the “inhibition of MLCK” value is recorded as “did not inhibit MLCK”. With `Cl.NCCN(CCS(=O)(=O)c1ccccc1)S(=O)(=O)c1cccc2c(O)nccc12` [Example 12, N-[(1-Hydroxy-5-isoquinolyl)sulfonyl]-N-[2-(phenylsulfonyl)ethyl]ethylenediamine hydrochloride], the vasoconstriction inhibitory action entry in experiment [2] is recorded as “significant vasoconstriction inhibitory action”. In addition, the “constriction of respiratory tract” value in experiment [1] was “significantly improved the constriction of respiratory tract”. In addition, the inhibition in vivo at 1 %, 50 µL in the experiment on intraocular pressure came out at 13.3%. Take `Cl.NCCCN(CCCc1cccc(C(=O)O)c1)S(=O)(=O)c1cccc2cnccc12` [Example 128, N-[(5-Isoquinolyl)sulfonyl]-N-[3-(3-carboxy)phenylpropyl]-1,3-propylenediamine hydrochloride]: the “inhibition of MLCK” value in experiment [3] is “did not inhibit MLCK”.

As for `Cl.c1cc(OC2CCNCC2)c2ccncc2c1` [Example 27, 4-[(5-Isoquinolyl)oxy]piperidine hydrochloride], the inhibition in vivo at 1 %, 50 µL in the experiment with intraocular pressure came out at 12.5%. Also, the “inhibition of MLCK” value in experiment [3] was “did not inhibit MLCK”.

As usually defined, the IC50 is the concentration that gives 50% inhibition. With `NCCCOc1cccc2c(N)nccc12` [Example 10, 3-[(1-Amino-5-isoquinolyl)oxy]propylamine hydrochloride], the IC50 in experiment [3] was more than 30 µM. Turning to `Cl.Fc1cncc2cccc(NC3CCNCC3)c12` [Example 104, 4-(4-Fluoro-5-isoquinolyl)aminopiperidine hydrochloride], in the experiment with intraocular pressure, the inhibition in vivo at 1 %, 50 µL was found to be 18.8%. For the same molecule, the “inhibition of MLCK” value in experiment [3] is listed as “did not inhibit MLCK”.

Regarding `Cl.NCCCN(CCCc1ccccc1)S(=O)(=O)c1cccc2c(N)nccc12` [Example 8, N-[(1-Amino-5-isoquinolyl)sulfonyl]-N-(3-phenylpropyl)-1,3-propylenediamine hydrochloride], the vasoconstriction inhibitory action entry in experiment [2] is “significant vasoconstriction inhibitory action”. In addition, the IC50 in experiment [3] is more than 50 µM. On to `Cc1cncc2cccc(O[C@H]3CC[C@H](N)CC3)c12.Cl` [Example 140, Trans-4-[(4-methyl-5-isoquinolyl)oxy]cyclohexylamine hydrochloride], for which the vasoconstriction inhibitory action entry in experiment [2] is listed as “significant vasoconstriction inhibitory action”. For the same molecule, the “constriction of respiratory tract” value in experiment [1] is recorded as “significantly improved the constriction of respiratory tract”. Besides, the “intraocular pressure reducing activity” value with intraocular pressure is recorded as “significant intraocular pressure reducing activity”. As for `Cl.N[C@H]1CC[C@H](Oc2cccc3cncc(Br)c23)CC1` [Example 133, Trans-4-[(4-bromo-5-isoquinolyl)oxy]cyclohexylamine hydrochloride], in experiment [1], the “constriction of respiratory tract” value is on record as “significantly improved the constriction of respiratory tract”. For the same molecule, the “intraocular pressure reducing activity” value in the experiment with intraocular pressure is reported as “significant intraocular pressure reducing activity”.

With `Cl.Clc1cncc2cccc(NC3CCNCC3)c12` [Example 118, 4-(4-Chloro-5-isoquinolyl)aminopiperidine hydrochloride], the “constriction of respiratory tract” value in experiment [1] is recorded as “significantly improved the constriction of respiratory tract”. The inhibition in vivo at 1 %, 50 µL in the experiment with intraocular pressure was 25%. Turning to `Cc1cncc2cccc(N[C@H]3CC[C@H](N)CC3)c12.Cl` [Example 121, Trans-N-(4-methyl-5-isoquinolyl)-1,4-cyclohexanediamine hydrochloride], the vasoconstriction inhibitory action result in experiment [2] is “significant vasoconstriction inhibitory action”. Also, the “constriction of respiratory tract” value in experiment [1] is “significantly improved the constriction of respiratory tract”. In the experiment with intraocular pressure, the inhibition in vivo at 1 %, 50 µL amounted to 31.3%. With `NCCN(CCS(=O)(=O)c1ccccc1)S(=O)(=O)c1cccc2cnccc12` [Example 7, N-[(5-Isoquinolyl)sulfonyl]-N-[2-(phenylsulfonyl)ethyl]ethylenediamine hydrochloride], in the experiment with intraocular pressure, the inhibition in vivo at 1 %, 50 µL is 30.1%. The half-maximal inhibitory concentration (IC50) in experiment [3] is more than 50 µM. In the case of `Cl.Nc1nccc2c(O[C@H]3CC[C@@H](N)CC3)cccc12` [Example 141, Cis-4-[(1-amino-5-isoquinolyl)oxy]cyclohexylamine hydrochloride], the “inhibition of MLCK” value in experiment [3] is listed as “did not inhibit MLCK”. As to `COC(=O)c1ccc(CCCN(CCCN)S(=O)(=O)c2cccc3cnccc23)cc1.Cl` [Example 130, N-[(5-Isoquinolyl)sulfonyl]-N-[3-(4-methoxycarbonyl)phenylpropyl]-1,3-propylenediamine hydrochloride], the “inhibition of MLCK” value in experiment [3] is on record as “did not inhibit MLCK”.

As for `c1cc(NC2CCCNC2)c2ccncc2c1` (racemic) [Example 29, 3-N-(5-Isoquinolyl)aminopiperidine hydrochloride], in experiment [1], the “constriction of respiratory tract” value is recorded as “significantly improved the constriction of respiratory tract”. As to `NCCCN(CCCc1ccccc1)S(=O)(=O)c1cccc2cnccc12` [Example 1, N-[(5-Isoquinolyl)sulfonyl]-N-(3-phenylpropyl)-1,3-propylenediamine hydrochloride], in experiment [3], the IC50 is more than 50 µM.

These data come from patent US7094789B2, “5-substituted isoquinoline derivatives” (Asahi Kasei Pharma Corporation, priority 2002, dated 2006).
